The data set in a line: ESI positive response factor (isotope-corrected peak area per molar concentration) in SFC/ESI/HRMS (area units per M); higher = higher ionization efficiency.
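Further: standards in acetonitrile/water run in triplicate on a zwitterionic HILIC column, CO2–methanol gradient containing 20 mmol/L ammonium acetate, postcolumn makeup flow, Orbitrap full-scan detection.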

For `CNC(=O)CSP(=O)(OC)OC` [Omethoate], the “ESI positive response factor” value amounted to 2.18e+16 (0.0175 µM); 3.37e+16 (0.035 µM); 3.65e+16 (0.0875 µM); 3.18e+16 (0.175 µM); 3.93e+16 (0.35 µM).
With `Cc1ccc(NC(=O)N(C)C)cc1Cl` [Chlortoluron], the “ESI positive response factor” value is, setting by setting: (0.0175 µM) 1.29e+17; (0.035 µM) 1.32e+17; (0.0875 µM) 1.48e+17; (0.175 µM) 1.28e+17; (0.35 µM) 1.4e+17.
Consider `CSc1nnc(C(C)(C)C)c(=O)n1N` [Metribuzin], for which the “ESI positive response factor” value is 2.83e+17 (0.0122 µM); 2.15e+17 (0.0244 µM); 1.69e+17 (0.061 µM); 1.54e+17 (0.122 µM); 1.52e+17 (0.244 µM).
With `CCN(CC)C(=O)c1cccc(C)c1` [DEET], the “ESI positive response factor” value by setting is: (0.35 µM) 4.74e+17; (0.875 µM) 4.86e+17.
As to `CC(=O)NCCCCC(N)C(=O)O` [N?-Acetyl-L-lysine], the “ESI positive response factor” value amounted to 8.93e+15 (0.35 µM), 9.29e+15 (0.875 µM) and 9.24e+15 (1.75 µM).
On to `C[C@]12CC[C@H]3[C@@H](CCC4=CC(=O)CC[C@@]43C)[C@@H]1CC[C@@H]2O` [Testosteron], for which the “ESI positive response factor” value reads like this: (0.0175 µM) 2.27e+17; (0.035 µM) 2.44e+17; (0.0875 µM) 2.22e+17.
With `CC(O)CN(CC(C)O)CC(C)O` (centres undefined) [triisopropanolamine], the “ESI positive response factor” value is 1.75e+17 (0.035 µM), 2.93e+17 (0.0875 µM), 3.36e+17 (0.175 µM) and 3.51e+17 (0.35 µM).
As for `C[N+](C)(C)CC(=O)O` [Betaine], the “ESI positive response factor” value was determined as 1.5e+17 (0.0175 µM), 1.36e+17 (0.035 µM) and 1.14e+17 (0.0875 µM).
Turning to `CC(C)C[C@H](CN)CC(=O)O` [Pregabalin], the “ESI positive response factor” value is, setting by setting: (0.0875 µM) 1.96e+16; (0.175 µM) 1.55e+16; (0.35 µM) 1.8e+16; (0.875 µM) 1.58e+16; (1.75 µM) 1.57e+16.
Regarding `O=C(O)Cc1ccccc1Nc1c(Cl)cccc1Cl` [Diclofenac], the “ESI positive response factor” value reads like this: (0.35 µM) 3.71e+15; (0.875 µM) 5.3e+15; (1.75 µM) 5.19e+15.
Consider `COCCOCCOCCO` [Triethylene glycol monomethyl ether], for which the “ESI positive response factor” value (0.0175 µM) was 8.19e+16, the “ESI positive response factor” value (0.035 µM) amounted to 9.98e+16, the “ESI positive response factor” value (0.0875 µM) is 8.29e+16 and the “ESI positive response factor” value (0.175 µM) was determined as 7.97e+16.
Regarding `CC(=O)Nc1ccc(O)cc1` [Acetaminophen], the “ESI positive response factor” value by setting is: (0.0175 µM) 3.61e+16; (0.035 µM) 4.56e+16; (0.0875 µM) 4.18e+16; (0.175 µM) 3.74e+16; (0.35 µM) 4.29e+16.
With `CCNC(=O)[C@H](C)OC(=O)Nc1ccccc1` [Carbetamid], the “ESI positive response factor” value reads like this: (0.0175 µM) 5.72e+16; (0.035 µM) 7.07e+16; (0.0875 µM) 6.85e+16; (0.175 µM) 6.12e+16; (0.35 µM) 6.45e+16.
For `CC(CCl)OP(=O)(OC(C)CCl)OC(C)CCl` (centres undefined) [TCPP], in that order: 1.59e+18, 1.21e+18, 1.02e+18, 8.34e+17 and 7.91e+17.
For `CON(C)C(=O)Nc1ccc(Cl)c(Cl)c1` [Linuron], the “ESI positive response factor” value (0.0122 µM) was 4.3e+16; the “ESI positive response factor” value (0.0244 µM) was determined as 3.86e+16; the “ESI positive response factor” value (0.061 µM) amounted to 4.29e+16; the “ESI positive response factor” value (0.122 µM) was determined as 4.05e+16; the “ESI positive response factor” value (0.244 µM) worked out at 4.46e+16.
`CN(C)C(=N)N=C(N)N` [Metformin]: the “ESI positive response factor” value by setting is: (0.0244 µM) 4.62e+16; (0.061 µM) 9.71e+16; (0.122 µM) 9.59e+16; (0.244 µM) 1.01e+17.
Consider `COC=C(C(=O)OC)c1ccccc1COc1cccc(C(F)(F)F)n1` [Picoxystrobin], for which the “ESI positive response factor” value reads like this: (0.0175 µM) 2.81e+17; (0.035 µM) 2.82e+17; (0.0875 µM) 2.61e+17; (0.175 µM) 2.25e+17; (0.35 µM) 2.47e+17.
With `CCN[C@H]1C[C@H](C)S(=O)(=O)c2sc(S(N)(=O)=O)cc21` [Dorzolamide], the “ESI positive response factor” value runs as follows: (0.035 µM) 8.5e+15; (0.0875 µM) 9.06e+15; (0.175 µM) 1.22e+16; (0.35 µM) 1.22e+16; (0.875 µM) 1.24e+16; (1.75 µM) 1.24e+16.
As to `CC(=O)C1=C(C)C2CC3(C1)C(C)CCC3C2(C)C` (centres undefined) [Methyl cedryl ketone], the “ESI positive response factor” value was 1.43e+16 (0.122 µM), 1.56e+16 (0.244 µM), 1.43e+16 (0.61 µM) and 1.44e+16 (1.22 µM).
With `COc1ccc(C(=O)c2ccccc2)c(O)c1` [Oxybenzone], the “ESI positive response factor” value (0.0175 µM) came to 1.73e+17, the “ESI positive response factor” value (0.035 µM) came out at 1.88e+17 and the “ESI positive response factor” value (0.0875 µM) amounted to 1.67e+17.
For `CCOC(=O)CN1CCCC1=O` [Ethyl 2-oxo-1-pyrrolidineacetate], in that order: 9.45e+16, 9.95e+16 and 9.42e+16.
On to `Nc1cccc2c1CN(C1CCC(=O)NC1=O)C2=O` (centres undefined) [Lenalidomid], for which the “ESI positive response factor” value (0.244 µM) worked out at 4.65e+14, the “ESI positive response factor” value (0.61 µM) is 5.58e+14 and the “ESI positive response factor” value (1.22 µM) turned out to be 7.56e+14.
Take `COCC(=O)N(c1c(C)cccc1C)N1CCOC1=O` [Oxadixyl]: the “ESI positive response factor” value is, setting by setting: (0.0175 µM) 1.33e+17; (0.035 µM) 1.43e+17; (0.0875 µM) 1.57e+17; (0.175 µM) 1.23e+17; (0.35 µM) 1.48e+17.
`Nc1ccccn1` [2-Aminopyridine]: the “ESI positive response factor” value worked out at 1.33e+16 (0.035 µM), 1.55e+16 (0.0875 µM), 1.48e+16 (0.175 µM) and 1.73e+16 (0.35 µM).
Take `CCOC(=O)[C@H](CCc1ccccc1)N[C@@H](C)C(=O)N1CCC[C@H]1C(=O)O` [Enalapril]: the “ESI positive response factor” value runs as follows: (0.0175 µM) 2.87e+17; (0.035 µM) 3.29e+17; (0.0875 µM) 3.2e+17; (0.175 µM) 3.2e+17.
Turning to `CCNc1nc(Cl)nc(NC(C)C)n1` [Atrazine], the “ESI positive response factor” value is, setting by setting: (0.0175 µM) 1.04e+18; (0.035 µM) 1.07e+18; (0.0875 µM) 9.8e+17; (0.175 µM) 9.03e+17.
Consider `CCSC(=O)N1CCCCCC1` [Molinate], for which the “ESI positive response factor” value stood at 1.56e+16 (0.061 µM); 1.94e+16 (0.122 µM); 2e+16 (0.244 µM); 1.59e+16 (0.61 µM); 1.93e+16 (1.22 µM).
Regarding `CCC[C@@H]1O[C@@H]2C[C@H]3[C@@H]4CCC5=CC(=O)C=C[C@]5(C)[C@H]4[C@@H](O)C[C@]3(C)[C@]2(C(=O)CO)O1` [Budesonid], the “ESI positive response factor” value by setting is: (0.0175 µM) 1.27e+17; (0.035 µM) 1.3e+17; (0.0875 µM) 1.25e+17; (0.175 µM) 1.16e+17; (0.35 µM) 1.25e+17.
As to `Cn1cnc2c1c(=O)n(CCCC(=O)O)c(=O)n2C` [1-(3-Carboxypropyl)-3,7-dimethyl-xanthin], the “ESI positive response factor” value reads like this: (0.0175 µM) 1.77e+16; (0.035 µM) 2.12e+16; (0.0875 µM) 2.2e+16; (0.175 µM) 2e+16; (0.35 µM) 2.34e+16; (0.875 µM) 2.22e+16.
Consider `COc1ccc2c(c1)c(CC(=O)O)c(C)n2C(=O)c1ccc(Cl)cc1` [Indomethacin], for which the “ESI positive response factor” value (0.122 µM) came to 1.45e+16, the “ESI positive response factor” value (0.244 µM) came out at 1.53e+16 and the “ESI positive response factor” value (0.61 µM) came out at 1.99e+16.
In the case of `Nc1ccnc(=O)[nH]1` [Cytosine], the “ESI positive response factor” value (0.35 µM) was found to be 2.81e+15, the “ESI positive response factor” value (0.875 µM) is 3.21e+15 and the “ESI positive response factor” value (1.75 µM) stood at 3.05e+15.
Take `CC1=C(C(=O)Nc2ccccc2)SCCO1` [Carboxin]: the “ESI positive response factor” value by setting is: (0.0175 µM) 7.6e+16; (0.035 µM) 1.1e+17; (0.0875 µM) 1.07e+17; (0.175 µM) 9.93e+16; (0.35 µM) 1.1e+17.
As to `OCCN1C[C@H](O)[C@@H](O)[C@H](O)[C@H]1CO` [Miglitol], the “ESI positive response factor” value was determined as 5.69e+15 (0.035 µM); 1e+16 (0.0875 µM); 1.1e+16 (0.175 µM); 1.34e+16 (0.35 µM); 1.42e+16 (0.875 µM); 1.46e+16 (1.75 µM).
For `O=S(=O)(O)c1ccc2nc(-c3ccccc3)[nH]c2c1` [2-Phenyl-5-benzimidazole], the “ESI positive response factor” value was found to be 7.22e+14 (0.0875 µM), 3.87e+15 (0.35 µM), 4.7e+15 (0.875 µM) and 4.96e+15 (1.75 µM).
With `NC(N)=Nc1nc(CSCCC(N)=NS(N)(=O)=O)cs1` [Famotidin], the “ESI positive response factor” value by setting is: (0.0875 µM) 2.45e+16; (0.175 µM) 3.25e+16; (0.35 µM) 3.73e+16; (0.875 µM) 3.76e+16; (1.75 µM) 3.72e+16.

The values are drawn from the supplement of paper PMC10326909.
